Experimental data reported in patent publication EP0233461B2, “4,5,6-Substituted-2-pyrimidinamines” (AMERICAN CYANAMID COMPANY, priority 1986, dated 1987).

Test system: human basophils
Assay: Inhibition of histamine release from immunologically stimulated human basophils
Assay type: cell-based
Conditions: Homo sapiens, concentration causing 50% inhibition of histamine release, by linear regression; active if IC50 ≦ 48 µM; read-out: IC50
Summary of the method: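 Leukocytes from sedimented human blood, washed in Tris-A and resuspended in Tris-ACM, were challenged with anti-IgE or antigen, with or without compound, for 60 min at 37 °C. Released histamine was measured fluorometrically after OPT derivatization and expressed as percent of total (perchloric acid lysate), corrected for spontaneous release.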

SMILES	IC50 [nM]
CN(C)CCOc1ccc(Nc2nccc(-c3cccnc3)n2)cc1 [N-[4-[2-(Dimethylamino)ethoxy]phenyl]-4-(3-pyridinyl)-2-pyrimidinamine]	500
CN(C)CCOc1ccc(Nc2nccc(-c3ccncc3)n2)cc1 [N-[4-[2-(Dimethylamino)ethoxy]phenyl]-4-(4-pyridinyl)-2-pyrimidinamine]	1500
CN(C)CCOc1ccc(N(CCN(C)C)c2nccc(-c3ccncc3)n2)cc1 [N-[4-[2-(Dimethylamino)ethoxy]phenyl]-N',N'-dimethyl-N-[4-(4-pyridinyl)-2-pyrimidinyl]-1,2-ethanediamine]	9100
CCN(CC)CCOc1ccc(Nc2nccc(-c3cccnc3)n2)cc1 [N-[4-[2-Diethylamino)ethaxy]phenyl]-4-(3-pyridinyl)-2-pyrimidinamine]	200
CC(C)N(CCOc1ccc(Nc2nccc(-c3cccnc3)n2)cc1)C(C)C [N-[4-[2-[bis(1-Methylethyl)amino]ethoxy]phenyl]-4-(3-pyridinyl)-2-pyrimidinamine]	4600
CN(C)CCCOc1ccc(Nc2nccc(-c3cccnc3)n2)cc1 [N-[4-[3-(Dimethylamino)propoxy]phenyl]-4-(3-pyridinyl)-2-pyrimidinamine]	500
CN(C)CCCOc1ccc(Nc2nccc(-c3ccncc3)n2)cc1 [N-[4-[3-(Dimethylamino)propoxy]phenyl]-4-(4-pyridinyl)-2-pyrimidinamine]	1300
Cc1ccc(CNc2nccc(-c3ccccn3)n2)cc1C [N-[(3,4-Dimethylphenyl)methyl]-4-(2-pyridinyl)-2-pyrimidinamine]	39800
CCOC(=O)C(=O)N(c1ccccc1)c1nccc(-c2ccncc2)n1 [Oxo[phenyl[4-(4-pyridinyl)-2-pyrimidinyl]amino]acetic acid, ethyl ester]	2100
CCOC(=O)COc1ccc(Nc2nccc(-c3ccncc3)n2)cc1 [[4-[[4-Pyridinyl)-2-pyrimidinyl]amino]phenoxy]acetic acid, ethyl ester]	5800
CC(O)c1ccc(Nc2nccc(-c3cccnc3)n2)cc1 (stereo not drawn) [α-Methyl-4-[[4-(3-pyridinyl)-2-pyrimidinyl]amino]benzenemethanol]	4500

Continued, values first:

IC50 [nM]	SMILES
700	CC(=O)Nc1ccc(Nc2nccc(-c3ccco3)n2)cc1 [N-[4-[[4-(2-Furanyl)-2-pyrimidin-yl]amino]phenyl]acetamide]
1500	CC(=O)Nc1ccc(Nc2nccc(-c3ccccn3)n2)cc1 [N-[4-[[4-(2-Pyridinyl)-2-pyrimidinyl]amino]-phenyl]acetamide]
200	CC(=O)Nc1ccc(Nc2nccc(-c3cccs3)n2)cc1 [N-[4-[[4-(2-Thienyl)-2-pyrimidinyl]amino]-phenyl]acetamide]
3600	CC(=O)Nc1ccc(Nc2nccc(-c3cccnc3)n2)cc1 [N-[4-[[4-(3-Pyridinyl)-2-pyrimidin-yl]amino]phenyl]acetamide]
5300	CC(=O)Nc1ccc(Nc2nccc(-c3ccncc3)n2)cc1 [N-[4-[[4-(4-Pyridinyl)-2-pyrimidinyl]amino]-phenyl]acetamide]
300	CC(=O)Nc1ccc(Nc2nccc(-c3ccc(C)s3)n2)cc1 [N-[4-[[4-(5-Methyl-2-thienyl)-2-pyrimidinyl]amino]phenyl]acetamide]
